The record followed here is patent US10188747B2, “Methods and compositions for the treatment of cancer” (THE GENERAL HOSPITAL CORPORATION, priority 2014, dated 2019).

The test system of experiment [1] is HKCs. In words: Treatment of differentiating HKCs with ER ligands, RT-qPCR and immunoblot analysis. Type of experiment: cell-based, human. The note with it: differentiating HKCs (100% confluence), 72 hours; 10 nM E2, 100 nM DPN, 100 nM PPT, 10 nM fulvestrant vs DMSO. An excerpt: (§1) FIG. 10B depicts graphs of expression of CYP1B1 determined by RT-qPCR in lung and keratinocyte-derived SCC cell lines in parallel with HBECs and HKCs, respectively. […] Data are presented as mean fold change of fluorescence intensity±SD (*P<0.05). FIG. 10D depicts graphs of indicated SCC cells plated in duplicate on Matrigel precoated chambers with spheroid number quantification 10 days later by ImageJ™ analysis of whole-cell images. Data are duplicates±SD (*P<0.05).
(§2) Besides estrogen, other agonists have been developed with elevated specificity for either the ERα or ERß receptors (43).
(§3) Conditions for RT-qPCR, immunoblotting, immunofluorescence and ChIP assays were as previously reported (9, 42). For immunoblotting, unless otherwise indicated, cells were lysed in SDS sample buffer (50 mM Tris-HCl pH 6.8, 2% SDS, 10% glycerol, 0.2 unit nuclease) and protein separation was done in 15-well 4-12% NuPAGE Bis-Tris polyacrylamide gels (Invitrogen). Equal loading controls were done by re-probing the same immunoblots unless otherwise indicated. All assays were done at least twice, with two HKC strains or epidermal samples of independent origin.
On the technique in general: Quantitative PCR measures a nucleic acid by following its amplification.

Experiment [2] has as its system HKCs. In words: DAPT treatment of HKCs infected with Dlx5- and ERβ-expressing retroviruses, RT-qPCR. The class given is cell-based, human. The note with it: DAPT 10 μM, added 24 hours after infection, analysis 48 hours later. As to the method: HKCs under differentiating conditions (100% confluence for 3 days: 100% cf+3D) were analyzed in parallel as point of reference. […] FIG. 5B depicts graphs of HKCs with or without infection with EGR3-, DLX5-, and ERβ-expressing retroviruses as in the previous panel were treated with DAPT (10 μM) or DMSO control at 24 hours after infection followed, 48 hours later, by RT-qPCR analysis of involucrin gene expression, with 36β4 for normalization. As an alternative, HKCs stably infected with a shRNA lentivirus against NOTCH1 or empty vector control were superinfected with the EGR3, DLX5, and ERβ expressing retroviruses, followed 72 hours later by RT-qPCR analysis of the same genes. FIG. 5C depicts graphs of HKCs with or without infection with EGR3-, DLX5-, and ERβ-expressing retroviruses as in FIG. 5A were analyzed, 72 hours after infection, by RT-qPCR of the indicated genes. *P<0.001.
Conditions for RT-qPCR, immunoblotting, immunofluorescence and ChIP assays were as previously reported (9, 42). For immunoblotting, unless otherwise indicated, cells were lysed in SDS sample buffer (50 mM Tris-HCl pH 6.8, 2% SDS, 10% glycerol, 0.2 unit nuclease) and protein separation was done in 15-well 4-12% NuPAGE Bis-Tris polyacrylamide gels (Invitrogen). Equal loading controls were done by re-probing the same immunoblots unless otherwise indicated. […]

Experiment [3] concerns SCC13 (skin), SW900 (lung), and SCCO13 (oral) SCC cells. In words: DAPT treatment of SCC cells infected with ERβ-expressing viral vectors, RT-qPCR. The class given is cell-based, human. The note with it: DAPT 10 μM, added 24 hours after infection, analysis 72 hours later; involucrin and keratin 10. The protocol: FIG. 9A depicts results of SCC cell lines infected with ERβ-expressing viral vectors versus controls as in FIGS. 8A-8E were analyzed for expression of the indicated proteins by immunoblotting. FIG. 9B depicts graphs of SCC13 (skin), SW900 (lung), and SCCO13 (oral) SCC cells infected with ERβ-expressing and control viral vectors were treated 24 hours after infection with DAPT (10 μM) or DMSO control followed, 72 hours later, by RT-qPCR analysis of involucrin and keratin 10 differentiation marker expression. *P<0.05.
To directly assess the impact of increased ERß signaling in SCC outgrowth, a panel of skin, oral and lung SCC cell lines were infected with ERß expressing versus control viruses. […] To test the in vivo impact of increased ERß expression, representative cell lines from skin (SCC13), head/neck (SCCO13) and lung SCCs (H2170) were assessed by intra-dermal tumorigenicity assays in immune compromised mice (42). Cells infected with the ERß expressing lentivirus formed tumors of similar size as the controls, but enhanced Notch1 expression and differentiation (FIGS. 9C-9D).
Conditions for RT-qPCR, immunoblotting, immunofluorescence and ChIP assays were as previously reported (9, 42). […]

The test system of another experiment is SCC cells. The experiment is described as follows: Alamar blue cell density assays of SCC cells. The class given is cell-based, human. The following applies: Alamar blue density assay, vs DMSO, refreshed every other day.
Description: as §1
Clonogenicity and Alamar Blue assays were as reported (60). For spheroid assays, 8-well chamber slides were coated with matrigel (BDbiosciences, CA; 50 μl per well) and incubated at 37° C. for 20 minutes to allow matrigel to polymerize. SCC cells were brought into suspension in normal culture medium plus 1% matrigel (7000 cells/ml) and added in triplicates to the pre-coated chamber slides (300 μl of cell mixture per well). Medium was refreshed every other day. For organotypic cultures, HKCs were infected with shRNA expressing lentiviruses followed, 48 hours later, by selection for puromycin ([…]) resistance. Selected keratinocyte cultures were reseeded onto collagen gels with embedded J2-3T3 fibroblasts and cultured at the air-liquid interface as previously described (61). […]
In general terms: Alamar Blue is a resazurin reagent that responds to reducing activity.

Another experiment deals with SCC cell lines. In words: Treatment of a panel of SCC cell lines with DPN, Notch1 and differentiation marker expression. Type of experiment: cell-based, human.
Description: as §1, §2, §3

Another experiment concerns SCCO13 cells. The experiment is described as follows: Intradermal tumorigenicity assay, ERß agonist study. The class given is in vivo, NOD/SCID mice. The protocol: SCC013 cells were injected intradermally in the left supra-scapular region of NOD/SCID mice (1×10^6 cells per injection). […] Animals were sacrificed 10 days later. Tumor weight and volume were measured, followed by determination of Ki67-labeling index by immunofluorescence analysis of histological section. *P<0.05.
Lenti-virally-infected SCC13, SCCO13 cells and retro-virally infected H2170 cells were suspended in matrigel followed by intra-dermal injection (1.0×10^6 cells in 150 μl per injection) into the back skin of 6 weeks old NOD/SCID mice (Taconic Farms Inc. Germantown, N.Y.) as described (9, 42). To minimize the individual animal variations, cells infected with control and ERß expressing viruses were injected in parallel in the right and left flank of the same mice. Mice were sacrificed for tissue analysis 3 weeks (SCC13 and SCCO13) or 1 week (H2170) after injection. For ERß agonist studies, SCCO13 cells were injected intra-dermally into NOD/SCID mice as described above.

Experiment [4] concerns skin, oral, and lung SCC cells. In words: Spheroid formation assays of SCC cells in Matrigel. The following applies: spheroid number 10 days later, vs DMSO. The class given is cell-based, human.
Description: as §1
In vitro and animal model assays are provided herein which allow the assessment of a given dose of an agonist as described herein. By way of non-limiting example, the effects of a dose of an agonist can be assessed by spheroid assay. A non-limiting example of a protocol for such an assay is as follows: 8-well chamber slides are coated with matrigel (BDbiosciences, CA; 50 μl per well) and incubated at 37° C. for 20 minutes to allow matrigel to polymerize. SCC cells are brought into suspension in normal culture medium plus 1% matrigel (7000 cells/ml) and added in triplicates to the pre-coated chamber slides (300 μl of cell mixture per well). Medium is refreshed every other day. An agonist is added to the medium and cell growth and proliferation measured over time, e.g. by microscopy.
Clonogenicity and Alamar Blue assays were as reported (60). […]

[5] abbreviates: SCCO13 tumors, 20 mg/kg daily, data not shown.

Consider `C[C@]12CC[C@@H]3c4ccc(O)cc4CC[C@H]3[C@@H]1CC[C@@H]2O` [17β-estradiol], for which, in the experiment with HKCs [1], the Notch1 expression entry is “induction” and the differentiation marker expression result was “induction”.
In the case of `C[C@H](NC(=O)Cc1cc(F)cc(F)c1)C(=O)N[C@H](C(=O)OC(C)(C)C)c1ccccc1` [DAPT], in the experiment on HKCs [2], the “induction of Hey1 and involucrin by enhanced expression of Dlx5 and ERβ” value is recorded as “prevented to a large extent”. The “induction of differentiation marker expression by increased ERß expression” value in experiment [3] is “significantly counteracted”.
On to `N#CC(Cc1ccc(O)cc1)c1ccc(O)cc1` (centres unmarked) [DPN, 2,3-bis(4-Hydroxyphenyl)-propionitrile], for which, in the experiment with SCC cells, the “proliferation of SCC cell lines” value is “significantly suppressed”. Besides, in the experiment on SCC cell lines, the Notch1 expression result is on record as “induction” and the differentiation marker expression entry is recorded as “induction”. For the same compound, the tumor size result in the experiment on SCCO13 cells (SCCO13 cells intradermally, 20 mg/kg intraperitoneally daily for 10 days, vs DMSO vehicle) is given as “significantly smaller size”. Also, in the experiment on SCCO13 cells (setting [5]), the “Notch1 expression in tumors” value is recorded as “increased” and the “differentiation marker expression in tumors” value is reported as “increased”. In addition, in the experiment with HKCs [1], the Notch1 expression result was “induction” and the differentiation marker expression result was “induction”. For the same compound, in experiment [4], the “sphere forming capability of SCC cell lines” value is “significantly suppressed”.
With `C[C@]12CC[C@@H]3c4ccc(O)cc4C[C@@H](CCCCCCCCC[S+]([O-])CCCC(F)(F)C(F)(F)F)[C@H]3[C@@H]1CC[C@@H]2O` (some centres unmarked) [Fulvestrant], in the experiment with HKCs [1], the Notch1 expression result is reported as “suppressed” and the differentiation marker expression result was “suppressed”.
Turning to `CCCc1c(-c2ccc(O)cc2)nn(-c2ccc(O)cc2)c1-c1ccc(O)cc1` [PPT, 1,3,5-Tris(4-hydroxyphenyl)-4-propyl-1H-pyrazole], in the experiment with HKCs [1], the Notch1 expression entry is “Little or no induction” and the differentiation marker expression result is “Little or no induction”.
